What all share (type): functional
Assay [1] concerns Pseudomonas aeruginosa. Nature of the assay: Antimicrobial activity against Pseudomonas aeruginosa isolate 243-31C expressing beta-lactamase VIM-18 isolated from sputum of patient by broth microdilution method. (In general: In broth dilution the organism is exposed to a series of concentrations in liquid medium.)
Assay [2] relates to Escherichia coli. Nature of the assay: Antimicrobial activity against Escherichia coli harboring plasmid pPCRScript by Etest.
Assay [3] deals with Escherichia coli. Nature of the assay: Antimicrobial activity against Escherichia coli harboring beta-lactamase VIM-18 by Etest.
Assay [4] relates to Escherichia coli. As to the kind of experiment: Antimicrobial activity against Escherichia coli harboring beta-lactamase VIM-2 by Etest.
For assay [5], the system named is Escherichia coli. As to the kind of experiment: Ratio of MIC for Escherichia coli harboring beta-lactamase VIM-2 to MIC for Escherichia coli harboring beta-lactamase VIM-18.
Assay [6] has as its system Pseudomonas aeruginosa. As to the kind of experiment: Antimicrobial activity against Pseudomonas aeruginosa isolate 243-31C expressing beta-lactamase VIM-18 isolated from sputum of patient by broth microdilution method in presence of beta-lactamase inhibitor Tazobactam.

Values after ≈ are worked out from the molar mass of the structure shown.

For orientation: MIC means the smallest concentration in the dilution series that meets the test's criterion for growth inhibition.

On to `C[C@@H](O)[C@H]1C(=O)N2C(C(=O)O)=C(S[C@@H]3CN[C@H](CNS(N)(=O)=O)C3)[C@H](C)[C@H]12` [DORIPENEM], for which, in the assay with Pseudomonas aeruginosa [1], the MIC worked out at 4 µg/mL (≈ 9.51 µM).
Take `CC(C)(O/N=C(\C(=O)N[C@@H]1C(=O)N2C(C(=O)[O-])=C(C[n+]3ccccc3)CS[C@H]12)c1csc(N)n1)C(=O)O` [CEFTAZIDIME]: the MIC is 0.125 µg/mL (≈ 0.229 µM) with Escherichia coli [2], 16 µg/mL (≈ 29.3 µM) with Escherichia coli [3], more than 16 µg/mL against Pseudomonas aeruginosa [1] and 4 µg/mL (≈ 7.32 µM) in the assay on Escherichia coli [4].
On to `C[C@@H](O)[C@H]1C(=O)N2C(C(=O)O)=C(SCCNC=N)C[C@H]12` [IMIPENEM ANHYDROUS], for which the MIC against Pseudomonas aeruginosa [1] came out at 8 µg/mL (≈ 26.7 µM); in the assay on Escherichia coli [4], 0.5 µg/mL (≈ 1.67 µM).
Turning to `C[C@H]1[C@H](NC(=O)/C(=N\OC(C)(C)C(=O)O)c2csc(N)n2)C(=O)N1S(=O)(=O)O` [AZTREONAM], the MIC in the assay with Escherichia coli [3] was determined as 0.032 µg/mL (≈ 0.0735 µM); against Pseudomonas aeruginosa [1] it was 16 µg/mL (≈ 36.7 µM); against Escherichia coli [4], 0.032 µg/mL (≈ 0.0735 µM).
On to `Cc1nnc(SCC2=C(C(=O)O)N3C(=O)[C@@H](NC(=O)Cn4cnnn4)[C@H]3SC2)s1` [CEFAZOLIN], for which the MIC against Escherichia coli [2] was 2 µg/mL (≈ 4.4 µM); in the assay on Escherichia coli [3], 32 µg/mL (≈ 70.4 µM); with Pseudomonas aeruginosa [1] it was more than 16 µg/mL; against Escherichia coli [4], more than 256 µg/mL. Also, the Ratio in the assay on Escherichia coli [5] is on record as 4.
For the molecule `O=C(O)c1cn(C2CC2)c2cc(N3CCNCC3)c(F)cc2c1=O` [CIPROFLOXACIN], the MIC in the assay on Pseudomonas aeruginosa [1] came to 0.06 µg/mL (≈ 0.181 µM).
Same read-out and setting: then `CO/N=C(\C(=O)N[C@@H]1C(=O)N2C(C(=O)O)=C(CSc3nc(=O)c(O)nn3C)CS[C@H]12)c1csc(N)n1` [CEFTRIAXONE], with more than 32 µg/mL; and GENTAMICIN, with 8 µg/mL.
As to `CO[C@@]1(NC(=O)Cc2cccs2)C(=O)N2C(C(=O)O)=C(COC(N)=O)CS[C@@H]21` [CEFOXITIN], the minimum inhibitory concentration (MIC) in the assay with Escherichia coli [2] is 4 µg/mL (≈ 9.36 µM); with Escherichia coli [3], 8 µg/mL (≈ 18.7 µM); against Pseudomonas aeruginosa [1], more than 16 µg/mL; in the assay on Escherichia coli [4] it was more than 256 µg/mL. For the same molecule, in the assay with Escherichia coli [5], the Ratio is listed as more than 6.
`CCN1CCN(C(=O)N[C@@H](C(=O)N[C@@H]2C(=O)N3[C@@H]2SC(C)(C)[C@@H]3C(=O)O)c2ccccc2)C(=O)C1=O` [PIPERACILLIN]: the MIC with Escherichia coli [2] is 2 µg/mL (≈ 3.86 µM); in the assay with Escherichia coli [3] it was 8 µg/mL (≈ 15.5 µM); in the assay with Pseudomonas aeruginosa [6], more than 64 µg/mL; in the assay on Pseudomonas aeruginosa [1], more than 64 µg/mL; in the assay on Escherichia coli [4], 4 µg/mL (≈ 7.73 µM).
Consider `C[C@@H](O)[C@H]1C(=O)N2C(C(=O)O)=C(S[C@@H]3CN[C@H](C(=O)N(C)C)C3)[C@H](C)[C@H]12` [MEROPENEM], for which the MIC against Escherichia coli [2] is 0.032 µg/mL (≈ 0.0834 µM); in the assay with Escherichia coli [3], 0.064 µg/mL (≈ 0.167 µM); with Pseudomonas aeruginosa [1], 8 µg/mL (≈ 20.9 µM); in the assay on Escherichia coli [4] it was 0.125 µg/mL (≈ 0.326 µM).
Molecule `NCC[C@H](O)C(=O)N[C@@H]1C[C@H](N)[C@@H](O[C@H]2O[C@H](CN)[C@@H](O)[C@H](O)[C@H]2O)[C@H](O)[C@H]1O[C@H]1O[C@H](CO)[C@@H](O)[C@H](N)[C@H]1O` [AMIKACIN] had an MIC against Pseudomonas aeruginosa [1] of more than 32 µg/mL.
Consider `CO/N=C(\C(=O)N[C@@H]1C(=O)N2C(C(=O)O)=C(COC(C)=O)CS[C@H]12)c1csc(N)n1` [CEFOTAXIME], for which the MIC in the assay with Escherichia coli [2] was 0.064 µg/mL (≈ 0.141 µM); with Escherichia coli [3], 2 µg/mL (≈ 4.39 µM); with Escherichia coli [4] it was 4 µg/mL (≈ 8.78 µM).
`CN(C)[C@@H]1C(O)=C(C(N)=O)C(=O)[C@@]2(O)C(O)=C3C(=O)c4c(O)cccc4[C@@](C)(O)[C@H]3C[C@@H]12` [TETRACYCLINE]: the MIC against Pseudomonas aeruginosa [1] is more than 8 µg/mL.
With `CO/N=C(\C(=O)N[C@@H]1C(=O)N2C(C(=O)[O-])=C(C[N+]3(C)CCCC3)CS[C@H]12)c1csc(N)n1`, the minimal inhibitory concentration (MIC) in the assay on Escherichia coli [2] was 0.032 µg/mL (≈ 0.0666 µM); against Pseudomonas aeruginosa [1] it was more than 16 µg/mL; against Escherichia coli [4] it was 0.5 µg/mL (≈ 1.04 µM).
`C[C@@H](O)[C@H]1C(=O)N2C(C(=O)O)=C(S[C@@H]3CN[C@H](C(=O)Nc4cccc(C(=O)O)c4)C3)[C@H](C)[C@H]12`: the MIC against Escherichia coli [2] was 0.006 µg/mL (≈ 0.0126 µM); in the assay with Escherichia coli [3] it was 0.016 µg/mL (≈ 0.0336 µM); in the assay on Pseudomonas aeruginosa [1], more than 8 µg/mL; against Escherichia coli [4], 0.25 µg/mL (≈ 0.526 µM). Besides, the Ratio in the assay with Escherichia coli [5] amounted to 9.
On to `NC[C@H]1O[C@H](O[C@H]2[C@H](O)[C@@H](O[C@H]3O[C@H](CO)[C@@H](O)[C@H](N)[C@H]3O)[C@H](N)C[C@@H]2N)[C@H](N)C[C@@H]1O` [TOBRAMYCIN], for which the minimum inhibitory concentration (MIC) in the assay on Pseudomonas aeruginosa [1] is more than 16 µg/mL.
As to `CC1(C)S[C@@H]2[C@H](NC(=O)[C@H](N)c3ccccc3)C(=O)N2[C@H]1C(=O)O` [AMPICILLIN], the MIC is 4 µg/mL (≈ 11.4 µM) against Escherichia coli [2], 64 µg/mL (≈ 183 µM) in the assay with Escherichia coli [3], more than 16 µg/mL in the assay with Pseudomonas aeruginosa [1] and more than 256 µg/mL in the assay with Escherichia coli [4].
Regarding POLYMYXIN B, the MIC in the assay with Pseudomonas aeruginosa [1] came to 1 µg/mL.

Values taken from ChEMBL document CHEMBL1629661, “Carbapenem resistance among Pseudomonas aeruginosa strains from India: evidence for nationwide endemicity of multiple metallo-beta-lactamase clones (VIM-2, -5, -6, and -11 and the newly characterized VIM-18)” (2009).
